Source: PubChem BioAssay AID330 (DTP/NCI, 2004)
“And” between values parts separate entries of the source, which are not always exact repeats. Identical values can stand only once. Toxic doses and inconclusive results are not listed. Rule for the calls: active = survival T/C of 150% or more; inactive = T/C below 125% in these data.

Test system: P388 leukemia ip, CD2F1 mice, survival T/C
Experiment: NCI In Vivo Anticancer Drug Screen. Data for tumor model P388 Leukemia (intraperitoneal) in CD2F1 (CDF1) mice
Settings: endpoint: median survival time, higher = longer survival
Summary of the method: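 Mice carrying the transplanted tumor received test compound or vehicle. Survival was recorded in each group, and the value is the treated-group measurement divided by that of the vehicle-treated control group.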

[1] = dose: 50.0 mg/kg/injection, schedule: Q01DX005 (ip), vehicle: saline with Tween-80
[2] = dose: 100.0 mg/kg/injection, schedule: Q01DX005 (ip), vehicle: saline with Tween-80
[3] = dose: 200.0 mg/kg/injection, schedule: Q01DX005 (ip), vehicle: saline with Tween-80
[4] = dose: 50.0 mg/kg/injection, schedule: Q01DX009 (ip), vehicle: Klucel (hydroxypropylcellulose) (HPC)
[5] = dose: 100.0 mg/kg/injection, schedule: Q01DX009 (ip), vehicle: Klucel (hydroxypropylcellulose) (HPC)
[6] = dose: 200.0 mg/kg/injection, schedule: Q01DX009 (ip), vehicle: Klucel (hydroxypropylcellulose) (HPC)
[7] = dose: 50.0 mg/kg/injection, schedule: Q01DX005 (ip), vehicle: Klucel (hydroxypropylcellulose) (HPC)
[8] = dose: 100.0 mg/kg/injection, schedule: Q01DX005 (ip), vehicle: Klucel (hydroxypropylcellulose) (HPC)
[9] = dose: 200.0 mg/kg/injection, schedule: Q01DX005 (ip), vehicle: Klucel (hydroxypropylcellulose) (HPC)
[10] = dose: 100.0 mg/kg/injection, schedule: Q04DX003 (ip), vehicle: saline with Tween-80
[11] = dose: 200.0 mg/kg/injection, schedule: Q04DX003 (ip), vehicle: saline with Tween-80
[12] = dose: 400.0 mg/kg/injection, schedule: Q04DX003 (ip), vehicle: saline with Tween-80
[13] = dose: 50.0 mg/kg/injection, schedule: Q01DX009 (ip), vehicle: saline
[14] = dose: 100.0 mg/kg/injection, schedule: Q01DX009 (ip), vehicle: saline
[15] = dose: 200.0 mg/kg/injection, schedule: Q01DX009 (ip), vehicle: saline
[16] = dose: 25.0 mg/kg/injection, schedule: Q01DX005 (ip), vehicle: Klucel (hydroxypropylcellulose) (HPC)

Measured: T/C

N#CC1=C(N)OC(/C=C/c2ccccc2)=C(C#N)C1c1ccccc1 (configuration not stated)
inactive: [1] 97 % of control | [2] 98 % of control | [3] 89 % of control

CCCCCCC(=O)C(=O)c1ccc(O)c(C)c1O
inactive: [4] 89 % of control | [5] 93 % of control | [6] 93 % of control

C[CH2][Sn]1([CH2]C)[O]C2C(O)OC(CO)C(O)C2[O]1 (configuration not stated)
inactive: dose: 1.56 mg/kg/injection, schedule: Q04DX003 (ip), vehicle: saline 107 % of control and 120 % of control | dose: 3.12 mg/kg/injection, schedule: Q04DX003 (ip), vehicle: saline 107 % of control and 120 % of control | dose: 6.25 mg/kg/injection, schedule: Q04DX003 (ip), vehicle: saline 114 % of control | dose: 12.5 mg/kg/injection, schedule: Q04DX003 (ip), vehicle: saline 116 % of control

COc1ccc2c(c1)[C@@]13CCCC[C@H]1[C@@H](C2)[N+](CC1CC1)=CC3=NO
inactive: [7] 111 % of control | [8] 102 % of control | [9] 105 % of control

Cc1ccc(/C=N/N)s1
inactive: dose: 50.0 mg/kg/injection, schedule: Q04DX003 (ip), vehicle: other 90 % of control | dose: 100.0 mg/kg/injection, schedule: Q04DX003 (ip), vehicle: other 100 % of control | dose: 200.0 mg/kg/injection, schedule: Q04DX003 (ip), vehicle: other 100 % of control

Cc1cc(Br)c2c(c1N)C(=O)c1ccccc1C2=O
inactive: [4] 99 % of control | [5] 107 % of control | [6] 102 % of control

CC1(C)COC(=O)C(C)(C2(C)NC(C)(C)COC2=O)N1 (configuration not stated)
inactive: dose: 25.0 mg/kg/injection, schedule: Q01DX009 (ip), vehicle: saline with Tween-80 99 % of control | dose: 50.0 mg/kg/injection, schedule: Q01DX009 (ip), vehicle: saline with Tween-80 102 % of control | dose: 100.0 mg/kg/injection, schedule: Q01DX009 (ip), vehicle: saline with Tween-80 101 % of control | dose: 200.0 mg/kg/injection, schedule: Q01DX001 (ip), vehicle: saline with Tween-80 95 % of control | dose: 200.0 mg/kg/injection, schedule: Q01DX009 (ip), vehicle: saline with Tween-80 114 % of control | dose: 400.0 mg/kg/injection, schedule: Q01DX001 (ip), vehicle: saline with Tween-80 97 % of control | dose: 400.0 mg/kg/injection, schedule: Q01DX009 (ip), vehicle: saline with Tween-80 106 % of control | dose: 800.0 mg/kg/injection, schedule: Q01DX001 (ip), vehicle: saline with Tween-80 101 % of control

O/N=C1/C(=N/O)N(c2ccccc2)CN1c1ccccc1
inactive: dose: 7.5 mg/kg/injection, schedule: Q01DX005 (ip), vehicle: Klucel (hydroxypropylcellulose) (HPC) 102 % of control | dose: 15.0 mg/kg/injection, schedule: Q01DX005 (ip), vehicle: Klucel (hydroxypropylcellulose) (HPC) 95 % of control | dose: 30.0 mg/kg/injection, schedule: Q01DX005 (ip), vehicle: Klucel (hydroxypropylcellulose) (HPC) 98 % of control

CC1(C)N[P+]2(Nc3ccccc3O2)OC1=O (configuration not stated)
inactive: dose: 100.0 mg/kg/injection, schedule: Q04DX002 (ip), vehicle: Klucel (hydroxypropylcellulose) (HPC) 97 % of control | dose: 200.0 mg/kg/injection, schedule: Q04DX002 (ip), vehicle: Klucel (hydroxypropylcellulose) (HPC) 93 % of control | dose: 400.0 mg/kg/injection, schedule: Q04DX002 (ip), vehicle: Klucel (hydroxypropylcellulose) (HPC) 87 % of control

CCOC(=O)C(=CNc1cccc(N(C)C)c1)C(=O)OCC
inactive: [1] 100 % of control | [2] 92 % of control | [3] 100 % of control

Cc1ccc2c[n+]3ccccc3c(-c3ccccc3)c2c1
inactive: dose: 1.56 mg/kg/injection, schedule: Q04DX003 (ip), vehicle: Klucel (hydroxypropylcellulose) (HPC) 100 % of control | dose: 3.12 mg/kg/injection, schedule: Q04DX003 (ip), vehicle: Klucel (hydroxypropylcellulose) (HPC) 100 % of control

O=C1CC(SC(=S)N2CCOCC2)C(=O)N1 (configuration not stated)
inactive: dose: 100.0 mg/kg/injection, schedule: Q04DX002 (ip), vehicle: saline 99 % of control and 103 % of control | dose: 200.0 mg/kg/injection, schedule: Q04DX002 (ip), vehicle: saline 99 % of control and 97 % of control | dose: 400.0 mg/kg/injection, schedule: Q04DX002 (ip), vehicle: saline 100 % of control and 109 % of control

CCCCCCC(=O)/C=C/C=C/c1ccccc1
inactive: [10] 100 % of control | [11] 103 % of control | [12] 92 % of control

O=C(c1ccccc1)C12CCC(CC1)C2
inactive: [4] 103 % of control | [5] 103 % of control | [6] 110 % of control

C1COCCCOCCCOCCCC2(CCCOCCCOC1)OCCO2
inactive: [1] 102 % of control | [2] 102 % of control | [3] 101 % of control

O=C(OCc1ccccc1)N1Cc2cc3ccccc3nc2C1
inactive: [10] 103 % of control | [11] 103 % of control | [12] 101 % of control

CCC(c1ccccc1)c1noc(CCN(CC)CC)n1 (configuration not stated)
inactive: [4] 101 % of control | [5] 99 % of control | [6] 113 % of control

NS(=O)(=O)c1ccc(N=c2c3ccccc3n(-c3ccccc3)c3ccccc23)cc1
inactive: [1] 102 % of control | [2] 93 % of control | [3] 90 % of control

CC(C)c1cc(O)c2c(c1O)C1CC3C(C)(C)CCC[C@]23C(=O)O1 (some centres not stated)
inactive: dose: 4.88 mg/kg/injection, schedule: Q01DX005 (ip), vehicle: Klucel (hydroxypropylcellulose) (HPC) 95 % of control | dose: 9.75 mg/kg/injection, schedule: Q01DX005 (ip), vehicle: Klucel (hydroxypropylcellulose) (HPC) 100 % of control | dose: 19.5 mg/kg/injection, schedule: Q01DX005 (ip), vehicle: Klucel (hydroxypropylcellulose) (HPC) 100 % of control | dose: 39.0 mg/kg/injection, schedule: Q01DX005 (ip), vehicle: Klucel (hydroxypropylcellulose) (HPC) 96 % of control

O=C1c2cccc3cccc(c23)C(=O)N1CCc1ccccn1
inactive: [1] 107 % of control | [2] 98 % of control

CC1N(/N=C/c2ccccc2)C(c2ccccc2)C(c2ccccc2)N1/N=C/c1ccccc1 (configuration not stated)
inactive: [7] 99 % of control | [8] 98 % of control | [9] 99 % of control

Nc1ncnc2c1ccn2Cc1c(Cl)cccc1Cl
inactive: dose: 50.0 mg/kg/injection, schedule: Q01DX005 (ip), vehicle: distilled water + alcohol 101 % of control | dose: 100.0 mg/kg/injection, schedule: Q01DX005 (ip), vehicle: distilled water + alcohol 101 % of control | dose: 200.0 mg/kg/injection, schedule: Q01DX005 (ip), vehicle: distilled water + alcohol 98 % of control

COc1cc2cc(=O)n(N)c(C)c2cc1OC
inactive: [13] 108 % of control | [14] 106 % of control | [15] 99 % of control

COC(=O)c1cccc2c1Oc1ccccc1S2
inactive: [16] 102 % of control | [7] 103 % of control | [8] 102 % of control | [9] 100 % of control

C#CCn1cnc2c(N)ncnc21
inactive: [7] 97 % of control | [8] 93 % of control

O=C1Nc2ccccc2/C1=N/n1c(-c2ccccc2)nc2ccccc2c1=O
inactive: dose: 12.5 mg/kg/injection, schedule: Q01DX005 (ip), vehicle: Klucel (hydroxypropylcellulose) (HPC) 97 % of control | [16] 97 % of control | [7] 87 % of control | [8] 90 % of control | [9] 89 % of control

O=C(N1CCC(CCCC2CCN(C(=O)C(F)(F)C(F)(F)C(F)(F)C(F)(F)C(F)(F)C(F)(F)C(F)(F)F)CC2)CC1)C(F)(F)C(F)(F)C(F)(F)C(F)(F)C(F)(F)C(F)(F)C(F)(F)F
inactive: [13] 98 % of control | [14] 96 % of control | [15] 95 % of control

ClCCN(CCCl)c1ccc(/C=N/Nc2c3c(nc4ccccc24)CCCC3)cc1
inactive: dose: 0.39 mg/kg/injection, schedule: Q01DX009 (ip), vehicle: Klucel (hydroxypropylcellulose) (HPC) 95 % of control | dose: 0.78 mg/kg/injection, schedule: Q01DX009 (ip), vehicle: Klucel (hydroxypropylcellulose) (HPC) 108 % of control | dose: 1.56 mg/kg/injection, schedule: Q01DX009 (ip), vehicle: Klucel (hydroxypropylcellulose) (HPC) 95 % of control | dose: 12.5 mg/kg/injection, schedule: Q01DX009 (ip), vehicle: Klucel (hydroxypropylcellulose) (HPC) 90 % of control
